Source: patent publication US20040258695A1, “Transferrin binding peptides and uses thereof” (priority 2003, published 2004)

T1: HRP alone (UniProt P00433 31-338)
T1 construct: Negative control probe for library 2; also called horseradish peroxidase
T1 sequence: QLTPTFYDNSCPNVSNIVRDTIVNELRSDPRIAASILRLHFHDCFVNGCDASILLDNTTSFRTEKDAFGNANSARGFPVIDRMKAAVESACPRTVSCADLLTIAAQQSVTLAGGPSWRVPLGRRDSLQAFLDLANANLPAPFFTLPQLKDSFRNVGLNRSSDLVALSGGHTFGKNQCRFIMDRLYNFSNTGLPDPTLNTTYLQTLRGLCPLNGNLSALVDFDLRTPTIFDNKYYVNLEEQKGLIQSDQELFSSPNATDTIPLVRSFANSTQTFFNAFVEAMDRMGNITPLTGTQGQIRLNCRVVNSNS

B1: M. catarrhalis TbpB N-lobe peptide avkykghwdfmtdva (peptide)
peptide: AVKYKGHWDFMTDVA
notes: SPOT peptide immobilised on cellulose membrane
B2: M. catarrhalis TbpB N-lobe peptide nfkekkltgklfsnl (peptide)
peptide: NFKEKKLTGKLFSNL
notes: as for B1
B3: M. catarrhalis TbpB N-lobe peptide wnlgpvggvfyngtt (peptide)
peptide: WNLGPVGGVFYNGTT
notes: as for B1
B4: H. influenzae TbpB peptide TDANKSQNRTHKLYD (peptide)
peptide: TDANKSQNRTHKLYD
notes: library peptide
B5: M. catarrhalis TbpB N-lobe peptide kghwdfmtdvanrrn (peptide)
peptide: KGHWDFMTDVANRRN
notes: as for B1
B6: H. influenzae TbpB peptide YKGTWSFITAAENGK (peptide)
peptide: YKGTWSFITAAENGK
notes: library peptide
B7: H. influenzae TbpB peptide SALPVGGVATYKGTW (peptide)
peptide: SALPVGGVATYKGTW
notes: library peptide
B8: M. catarrhalis TbpB N-lobe peptide ydidanihgnrfrgs (peptide)
peptide: YDIDANIHGNRFRGS
notes: as for B1
B9: H. influenzae TbpB peptide AALNLFDRNKPSLLN (peptide)
peptide: AALNLFDRNKPSLLN
notes: library peptide
B10: M. catarrhalis TbpB N-lobe peptide fsevkensqagwyyg (peptide)
peptide: FSEVKENSQAGWYYG
notes: as for B1
B11: M. catarrhalis TbpB N-lobe peptide dfmtdvanrrnrfse (peptide)
peptide: DFMTDVANRRNRFSE
notes: as for B1
B12: M. catarrhalis TbpB N-lobe peptide kkltgklfsnlqdrh (peptide)
peptide: KKLTGKLFSNLQDRH
notes: as for B1
B13: M. catarrhalis TbpB N-lobe peptide kterydidanihgnr (peptide)
peptide: KTERYDIDANIHGNR
notes: as for B1
B14: M. catarrhalis TbpB N-lobe peptide amgygmalskinlhn (peptide)
peptide: AMGYGMALSKINLHN
notes: as for B1
B15: H. influenzae TbpB peptide GKFLAHDKKVLGVFS (peptide)
peptide: GKFLAHDKKVLGVFS
notes: library peptide
B16: H. influenzae TbpB peptide APNSNENRHGQKYVY (peptide)
peptide: APNSNENRHGQKYVY
notes: library peptide
B17: M. catarrhalis TbpB N-lobe peptide gklfsnlqdrhkgnv (peptide)
peptide: GKLFSNLQDRHKGNV
notes: as for B1
B18: H. influenzae TbpB peptide IQSWSLRDLPNKKFY (peptide)
peptide: IQSWSLRDLPNKKFY
notes: library peptide
B19: H. influenzae TbpB peptide RNSGGGQAYSRRSAT (peptide)
peptide: RNSGGGQAYSRRSAT
notes: library peptide

Experiments:
[1] = system: TbpB N-lobe from M. haemolytica; test: bTf C-lobe overlapping peptide library probed with HRP-labelled M. haemolytica TbpB N-lobe; type: binding
Text: (§1) Transferrin binding determinants from two bovine pathogens, M. haemolytica and H. somnus, as well as potential conserved transferrin binding determinants derived therefrom, were identified as described in Example 1 and shown in Table 4 below. Briefly, purified TbpB N-lobes from M. haemolytica and H. somnus were labelled with HRP and used to probe the bTf C-lobe overlapping peptide library. The peptides from the library that bound to the indicated TbpB N-lobe are listed in the column below the species name. The common overlap sequence from adjacent peptides probed with M. haemolytica (*), H. somnus (**) or both ( ) TbpB N-lobes are indicated for the indicated regions.

[2] = system: TbpB N-lobe from H. somnus; test: bTf C-lobe overlapping peptide library probed with HRP-labelled H. somnus TbpB N-lobe; type: binding
Text: as §1

HRP alone = target: T1, HRP alone; test: SPOT peptide library 2 probed with HRP alone, chemiluminescence
[3] = target: T2, human transferrin (hTf), iron loaded (human, UniProt P02787 20-698); test: SPOT peptide library 2 of TbpB N-lobe probed with HRP-hTf, chemiluminescence
T2 construct: Used as a labelled probe (beta-gal conjugate for library 1, HRP conjugate for library 2 and the solid-phase assay); also called β-gal-hTf; HRP conjugated hTf

[4] = target: T2, human transferrin (hTf), iron loaded; test: TbpB overlapping peptide library probed with labelled hTf as in Example 1

T2 sequence (P02787 20-698 limits assumed): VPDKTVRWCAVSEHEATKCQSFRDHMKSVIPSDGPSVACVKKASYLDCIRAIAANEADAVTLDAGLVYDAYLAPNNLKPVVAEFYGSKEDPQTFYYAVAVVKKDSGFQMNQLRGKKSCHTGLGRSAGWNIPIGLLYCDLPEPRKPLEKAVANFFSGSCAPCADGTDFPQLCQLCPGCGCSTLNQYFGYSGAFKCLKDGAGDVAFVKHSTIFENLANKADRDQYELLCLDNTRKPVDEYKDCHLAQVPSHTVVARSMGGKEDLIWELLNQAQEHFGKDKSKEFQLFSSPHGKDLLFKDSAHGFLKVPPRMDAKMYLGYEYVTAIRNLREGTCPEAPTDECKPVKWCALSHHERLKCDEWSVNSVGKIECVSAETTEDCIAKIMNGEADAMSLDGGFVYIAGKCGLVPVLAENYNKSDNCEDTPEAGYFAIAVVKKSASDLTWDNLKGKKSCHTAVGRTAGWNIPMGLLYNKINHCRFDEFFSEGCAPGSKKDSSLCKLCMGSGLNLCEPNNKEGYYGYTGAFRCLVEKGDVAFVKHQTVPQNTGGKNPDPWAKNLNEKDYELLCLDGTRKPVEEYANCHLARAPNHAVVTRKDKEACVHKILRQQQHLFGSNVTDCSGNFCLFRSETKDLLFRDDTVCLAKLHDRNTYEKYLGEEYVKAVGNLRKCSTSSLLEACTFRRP

Molecule	binding to M. haemolytica TbpB N-lobe (bound peptide listed; None = did not bind) [1]	binding to H. somnus TbpB N-lobe (bound peptide listed; None = did not bind) [2]	binding result (HRP alone)	binding result [3]	binding result [4]
MVKWCAIGHQERTKC (TbpB N-lobes of Bovine Pathgens) [Peptide 1, bTf C-lobe library peptide]	MVKWCAIGHQERTKC	MVKWCAIGHQERTKC	–	–	–
CAIGHQERTKCDRWS (TbpB N-lobes of Bovine Pathgens) [Peptide 2, bTf C-lobe library peptide]	CAIGHQERTKCDRWS	CAIGHQERTKCDRWS	–	–	–
HQERTKCDRWSGFSG (TbpB N-lobes of Bovine Pathgens) [Peptide 3, bTf C-lobe library peptide]	HQERTKCDRWSGFSG	HQERTKCDRWSGFSG	–	–	–
NNNEAWAKNLKKENF (TbpB N-lobes of Bovine Pathgens) [Peptide 9, bTf C-lobe library peptide]	NNNEAWAKNLKKENF	NNNEAWAKNLKKENF	–	–	–
KCLASIAKKTYDSYL (TbpB N-lobes of Bovine Pathgens) [Peptide 17, bTf C-lobe library peptide]	KCLASIAKKTYDSYL	KCLASIAKKTYDSYL	–	–	–
RDDTKCLASIAKKTY (TbpB N-lobes of Bovine Pathgens) [Peptide 16, bTf C-lobe library peptide]	RDDTKCLASIAKKTY	RDDTKCLASIAKKTY	–	–	–
NLKKENFEVLCKDGT (TbpB N-lobes of Bovine Pathgens) [Peptide 11, bTf C-lobe library peptide]	NLKKENFEVLCKDGT	None	–	–	–
AWAKNLKKENFEVLC (TbpB N-lobes of Bovine Pathgens) [Peptide 10, bTf C-lobe library peptide]	AWAKNLKKENFEVLC	None	–	–	–
KTSDANINWNNLKDK (TbpB N-lobes of Bovine Pathgens) [Peptide 4, bTf C-lobe library peptide]	KTSDANINWNNLKDK	–	–	–	–
ANINWNNLKDKKSCH (TbpB N-lobes of Bovine Pathgens) [Peptide 5, bTf C-lobe library peptide]	ANINWNNLKDKKSCH	ANINWNNLKDKKSCH	–	–	–
SRKDKATCVEKILNK (TbpB N-lobes of Bovine Pathgens) [Peptide 15, bTf C-lobe library peptide]	None	SRKDKATCVEKILNK	–	–	–
NSNERYYGYTGAFRC (TbpB N-lobes of Bovine Pathgens) [Peptide 6, bTf C-lobe library peptide]	None	NSNERYYGYTGAFRC	–	–	–
CHLARGPNHAVVSRK (TbpB N-lobes of Bovine Pathgens) [Peptide 12, bTf C-lobe library peptide]	CHLARGPNHAVVSRK	CHLARGPNHAVVSRK	–	–	–
RGPNHAVVSRKDKAT (TbpB N-lobes of Bovine Pathgens) [Peptide 13, bTf C-lobe library peptide]	RGPNHAVVSRKDKAT	RGPNHAVVSRKDKAT	–	–	–
HAVVSRKDKATCVEK (TbpB N-lobes of Bovine Pathgens) [Peptide 14, bTf C-lobe library peptide]	HAVVSRKDKATCVEK	HAVVSRKDKATCVEK	–	–	–
RYYGYTGAFRCLVEK (TbpB N-lobes of Bovine Pathgens) [Peptide 7, bTf C-lobe library peptide]	None	RYYGYTGAFRCLVEK	–	–	–
RAMTNLRQCSTSKLL (TbpB N-lobes of Bovine Pathgens) [Peptide 18, bTf C-lobe library peptide]	RAMTNLRQCSTSKLL	RAMTNLRQCSTSKLL	–	–	–
NTDGNNNEAWALK (NTDGNNNEAWAKNLK; TbpB N-lobes of Bovine Pathgens) [Peptide 8, bTf C-lobe library peptide]	None	NTDGNNNEAWALK	–	–	–
B1	–	–	no binding	binds	–

Molecule	binding to M. haemolytica TbpB N-lobe (bound peptide listed; None = did not bind) [1]	binding to H. somnus TbpB N-lobe (bound peptide listed; None = did not bind) [2]	binding result (HRP alone)	binding result [3]	binding result [4]
B2	–	–	no binding	binds	–
B3	–	–	no binding	binds	–
B4	–	–	–	–	binds
B5	–	–	no binding	binds	–
B6	–	–	–	–	binds
B7	–	–	–	–	binds
B8	–	–	no binding	binds	–
B9	–	–	–	–	binds
B10	–	–	no binding	binds	–
B11	–	–	no binding	binds	–
B12	–	–	no binding	binds	–
B13	–	–	no binding	binds	–
B14	–	–	no binding	binds	–
B15	–	–	–	–	binds
B16	–	–	–	–	binds
B17	–	–	no binding	binds	–
B18	–	–	–	–	binds
B19	–	–	–	–	binds
